PMC10734772 (Turkish Journal of Chemistry, 2021)

Key:
Type in all cases: cell-based
Molt-4 = experiment: MTT assay, Molt-4 cells; conditions: Homo sapiens, MOLT-4, 24 h, read-out: Viability rate
Method: (§1) K562, Jurkat, Molt-4, and Nalm-6 cell lines were cultured in RPMI-1640 medium (ECM2001, Euroclone), Reh cell line was cultured in DMEM medium (LM-D1111-Biosera) Hek293T cell line was cultured in IMDM medium (AL070A - HiMedia) supplemented with 10% heat-inactivated fetal bovine serum (F7524-Merck & Co., USA,) penicillin and streptomycin (P4333-Sigma Aldrich). K562, Jurkat and Molt-4 cell lines were seeded as 4x10^5/ml, Reh and Nalm-6 cell lines were seeded 5x10^5/ml, Hek293T cell line was seed as 2x10^5/ml. All cells were incubated at 5% CO2 and 37 °C. All cell lines were kindly provided by Dr. M. Sayitoglu and Dr. Ö. Hatirnaz-Ng from Acibadem University.
(§2) MTT assay is a 3-day test. On the first day, cell count was performed in Bio Rad TC-20 device with the help of trypan blue, each cell line was prepared by diluting to the specified concentrations and seeded in a 96-well plate as 100μL to each well and incubated for 1 day.
(§3) Each compound was solved in DMSO, their stock solutions (33.3, 10, 5, 1 mM, and 300 μM) were prepared by diluting with the same solvent and they were stored under −20°C when they were not used.
(§4) On the second day, stock solutions were subsequently diluted to various concentrations (0.3–200 μM) with related medium prior to experiments. Specified concentrations of the compounds were seeded in a 96-well plate as 100μL to each well and incubated for 24 h.
(§5) After incubation (on the third day), to precipitate leukemia cells, the cell plate was centrifuged at 1500 rpm for 5 min. Then, 100 μL of supernatant was removed from each well carefully and 10 μl of MTT solution (5 mg/mL) was added to each well and incubated at 37 °C for 4 h. The 50 μl of supernatant was discarded from each well and 100 μl of DMSO was added to dissolve the formazan. Plates were shaken for 45 min to dissolve the dye. Then the optical density of each well was measured by using Thermo VarioSkan Flush Multimode Reader Quantum ST5-1100 at 570 nm wavelength.
(§6) Subsequently, viability rate of the cells at each concentration, as percentage, was determined by following formula (1):
(§7) Viability rate (%)=100-[(OD(control)-OD(sample))/OD(control)×100].OD=Optical Density
(§8) The IC50 values were calculated by using GraphPad Prism. All the data presented as the mean of 6 replicates. Results were analyzed and illustrated with Graph Pad Prism (version 5; GraphPad Software, San Diego, CA, USA). Statistical analysis was performed using dose-response inhibition, log(inhibitor) vs response-variable slope, least squares (ordinary) fit.
(§9) To evaluate in-vitro anti-cancer activity of the newly synthesized compounds, they were tested by using the MTT assay in the BCR-ABL positive leukemic cell line (K562), BCR-ABL negative leukemic cell lines (Nalm-6, Molt-4, Reh and Jurkat), and non-leukemic human embryonic kidney tissue (Hek293T) cell line. […] The viability rate of each concentration was calculated by the formula stated in material and methods, the viability rate results for each cell were presented in Table S2 and Figure S44.

Reh = experiment: MTT assay, Reh cells; conditions: Homo sapiens, 24 h, read-out: Viability rate
Method: as §1, §2, §3, §4, §5, §6, §7, §8, §9

Jurkat = experiment: MTT assay, Jurkat cells; conditions: Homo sapiens, 24 h, read-out: Viability rate
Method: as §1, §2, §3, §4, §5, §6, §7, §8, §9

K562 = experiment: MTT assay, K562 cells; conditions: Homo sapiens, 24 h, MTT, read-out: Viability rate
[1] = MTT assay, Hek293T non-leukemic control cells; conditions: human, read-out: Viability rate
Method: as §1, §2, §3, §4, §5, §6, §7, §8, §9

[2] = tested on: K562, Nalm-6, Molt-4, Reh, Jurkat, Hek293T cell lines; experiment: MTT assay, overall judgement over all cell lines; conditions: overall judgement in words; for 6 and 10: on all cell lines, except Reh
Method: as §9

Nalm-6 = experiment: MTT assay, Nalm-6 cells; conditions: Homo sapiens, 24 h, MTT, read-out: Viability rate

Cc1ccc(NC(=O)c2ccc(CN3CCN(c4ncccn4)CC3)cc2)cc1Nc1cnccn1 [Compound 7, N-(4-Methyl-3-(pyrazin-2-ylamino)phenyl)-4-((4-(pyrimidin-2-yl)piperazin-1-yl)methyl)benzamide]
viability at 0.3 µM (Molt-4; Molt-4, 0.3 μM): 93.3 ± 0.16%
viability at 0.5 µM (Molt-4; Molt-4, 0.5 μM): 93.8 ± 0.08%
viability at 1 µM (Molt-4; Molt-4, 1 μM): 89.8 ± 0.07%
viability at 3 µM (Molt-4; Molt-4, 3 μM): 89.6 ± 0.12%
viability at 5 µM (Molt-4; Molt-4, 5 μM): 89.7 ± 0.08%
viability at 10 µM (Molt-4; Molt-4, 10 μM): 89.5 ± 0.06%
viability at 15 µM (Molt-4; Molt-4, 15 μM): 90.3 ± 0.04%
viability at 20 µM (Molt-4; Molt-4, 20 μM): 90.2 ± 0.06%
viability at 30 µM (Molt-4; Molt-4, 30 μM): 90.9 ± 0.06%
viability at 50 µM (Molt-4; Molt-4, 50 μM): 92.2 ± 0.05%
viability at 70 µM (Molt-4; Molt-4, 70 μM): 90.6 ± 0.06%
viability at 100 µM (Molt-4; Molt-4, 100 μM): 85.5 ± 0.06%
viability at 150 µM (Molt-4; Molt-4, 150 μM): 90.4 ± 0.04%
viability at 200 µM (Molt-4; Molt-4, 200 μM): 89.8 ± 0.07%
viability at 0.3 µM (Reh; 0.3 μM): 110 ± 0.02%
viability at 0.5 µM (Reh; 0.5 μM): 109.8 ± 0.02%
viability at 1 µM (Reh; 1 μM): 108.7 ± 0.02%
viability at 3 µM (Reh; 3 μM): 103.4 ± 0.02%
viability at 5 µM (Reh; 5 μM): 108.8 ± 0.02%
viability at 10 µM (Reh; 10 μM): 106.5 ± 0.05%
viability at 15 µM (Reh; 15 μM): 100.2 ± 0.02%
viability at 20 µM (Reh; 20 μM): 95.5 ± 0.06%
viability at 30 µM (Reh; 30 μM): 85.4 ± 0.02%
viability at 50 µM (Reh; 50 μM): 66.7 ± 0.02%
viability at 70 µM (Reh; 70 μM): 66.2 ± 0.03%
viability at 100 µM (Reh; 100 μM): 67.7 ± 0.03%
viability at 150 µM (Reh; 150 μM): 66.8 ± 0.02%
viability at 200 µM (Reh; 200 μM): 62.8 ± 0.02%
viability at 0.3 µM (Jurkat; 0.3 μM): 77.4 ± 0.09%
viability at 0.5 µM (Jurkat; 0.5 μM): 77.3 ± 0.07%
viability at 1 µM (Jurkat; 1 μM): 75.7 ± 0.03%
viability at 3 µM (Jurkat; 3 μM): 75.5 ± 0.05%
viability at 5 µM (Jurkat; 5 μM): 75.6 ± 0.03%
viability at 10 µM (Jurkat; 10 μM): 74.6 ± 0.06%
viability at 15 µM (Jurkat; 15 μM): 74.2 ± 0.05%
viability at 20 µM (Jurkat; 20 μM): 74 ± 0.06%
viability at 30 µM (Jurkat; 30 μM): 73.2 ± 0.07%
viability at 50 µM (Jurkat; 50 μM): 72.8 ± 0.03%
viability at 70 µM (Jurkat; 70 μM): 72.8 ± 0.03%
viability at 100 µM (Jurkat; 100 μM): 72.7 ± 0.04%
viability at 150 µM (Jurkat; 150 μM): 72.4 ± 0.09%
viability at 200 µM (Jurkat; 200 μM): 72.1 ± 0.06%
viability at 0.3 µM (K562; K562, 0.3 μM): 84.6 ± 0.15%
viability at 0.5 µM (K562; K562, 0.5 μM): 84.5 ± 0.08%
viability at 1 µM (K562; K562, 1 μM): 84.4 ± 0.08%
viability at 3 µM (K562; K562, 3 μM): 84.5 ± 0.1%
viability at 5 µM (K562; K562, 5 μM): 82.9 ± 0.12%
viability at 10 µM (K562; K562, 10 μM): 81.6 ± 0.05%
viability at 15 µM (K562; K562, 15 μM): 80.1 ± 0.06%
viability at 20 µM (K562; K562, 20 μM): 64 ± 0.07%
viability at 30 µM (K562; K562, 30 μM): 63.9 ± 0.04%
viability at 50 µM (K562; K562, 50 μM): 62.9 ± 0.06%
viability at 70 µM (K562; K562, 70 μM): 62.3 ± 0.07%
viability at 100 µM (K562; K562, 100 μM): 62.2 ± 0.05%
viability at 150 µM (K562; K562, 150 μM): 61.6 ± 0.05%
viability at 200 µM (K562; K562, 200 μM): 59.5 ± 0.07%
viability at 24 h, 0.3 µM ([1]; Hek293T cells (non-leukemic control cell line), 0.3 μM): 87.7 ± 0.06%
viability at 24 h, 0.5 µM ([1]; Hek293T cells (non-leukemic control cell line), 0.5 μM): 87.6 ± 0.07%
viability at 24 h, 3 µM ([1]; Hek293T cells (non-leukemic control cell line), 3 μM): 84.6 ± 0.05%
viability at 24 h, 5 µM ([1]; Hek293T cells (non-leukemic control cell line), 5 μM): 81 ± 0.09%
viability at 24 h, 10 µM ([1]; Hek293T cells (non-leukemic control cell line), 10 μM): 80.5 ± 0.06%
viability at 24 h, 15 µM ([1]; Hek293T cells (non-leukemic control cell line), 15 μM): 80.3 ± 0.04%
viability at 24 h, 20 µM ([1]; Hek293T cells (non-leukemic control cell line), 20 μM): 76 ± 0.03%
viability at 24 h, 30 µM ([1]; Hek293T cells (non-leukemic control cell line), 30 μM): 72.1 ± 0.02%
viability at 24 h, 50 µM ([1]; Hek293T cells (non-leukemic control cell line), 50 μM): 64.5 ± 0.02%
viability at 24 h, 70 µM ([1]; Hek293T cells (non-leukemic control cell line), 70 μM): 64.2 ± 0.02%
viability at 24 h, 100 µM ([1]; Hek293T cells (non-leukemic control cell line), 100 μM): 63.5 ± 0.07%
viability at 24 h, 150 µM ([1]; Hek293T cells (non-leukemic control cell line), 150 μM): 60.8 ± 0.03%
viability at 24 h, 200 µM ([1]; Hek293T cells (non-leukemic control cell line), 200 μM): 55.1 ± 0.02%
viability at 24 h, 1 µM ([1]; Hek293T cells, 1 μM): 87 ± 0.08%
anticancer activity according to MTT assay results [2]: very poor activity
viability at 0.3 µM (Nalm-6; Nalm-6, 0.3 μM): 97.9 ± 0.06%
viability at 0.5 µM (Nalm-6; Nalm-6, 0.5 μM): 95.1 ± 0.03%
viability at 1 µM (Nalm-6; Nalm-6, 1 μM): 95.1 ± 0.03%
viability at 3 µM (Nalm-6; Nalm-6, 3 μM): 96 ± 0.03%
viability at 5 µM (Nalm-6; Nalm-6, 5 μM): 95.6 ± 0.02%
viability at 10 µM (Nalm-6; Nalm-6, 10 μM): 95.1 ± 0.02%
viability at 15 µM (Nalm-6; Nalm-6, 15 μM): 95.9 ± 0.03%
viability at 20 µM (Nalm-6; Nalm-6, 20 μM): 96.4 ± 0.03%
viability at 30 µM (Nalm-6; Nalm-6, 30 μM): 96.5 ± 0.05%
viability at 50 µM (Nalm-6; Nalm-6, 50 μM): 72.3 ± 0.02%
viability at 70 µM (Nalm-6; Nalm-6, 70 μM): 71.8 ± 0.02%
viability at 100 µM (Nalm-6; Nalm-6, 100 μM): 71.3 ± 0.02%
viability at 150 µM (Nalm-6; Nalm-6, 150 μM): 70.2 ± 0.01%
viability at 200 µM (Nalm-6; Nalm-6, 200 μM): 59.7 ± 0.02%
